≈ marks a conversion by molar mass, not a printed value.
System: P388
Experiment: Cytotoxicity against mouse P388 cells
Type: functional
Settings: read-out: ED50 (the source's name)

SMILES	EC50
C=C(C)C(=O)O[C@H]1C[C@@](C)(OC(C)=O)C(=O)CC[C@H](C)[C@H](O)[C@H]2OC(=O)C(=C)[C@@H]21 [LYCHNOSTATIN 1]	2 µg/mL (≈ 4.9 µM)
C=C(C)C(=O)O[C@H]1C[C@@](C)(OC(C)=O)C(=O)CC[C@H](C)C[C@H]2OC(=O)C(=C)[C@H]12 [LYCHNOSTATIN 2]	0.19 µg/mL (≈ 0.484 µM)

Reference: ChEMBL document CHEMBL1150177, “Antineoplastic agents, 178. Isolation and structure of lychnostatins 1 and 2 from the South American Lychnophora antillana” (1990)
